Broadly, the ED50 is the midpoint of the dose-response relation.

The subject of this assay is Plasmodium yoelii nigeriensis. Kind of assay: Antimalarial activity against Plasmodium yoelii nigeriensis infected in po-dosed Swiss albino mouse assessed as inhibition of parasite growth administered qd for 4 days. Type of assay: functional. Particulars: 96 h.
For the molecule `C[C@@H]1CC[C@@H]2[C@]34OO[C@](C)(CC[C@@H]13)O[C@H]4OC(Nc1ccc(O)c(CN3CCN(c4cccc(C(F)(F)F)c4)CC3)c1)[C@@]2(C)Br` (stereo not given in full), the ED50 was determined as 6.01 mg/kg and the ED90 came out at 9.28 mg/kg.

Turning to `C[C@@H]1CC[C@@H]2[C@]34OO[C@](C)(CC[C@@H]13)O[C@H]4OC(Nc1ccc(O)c(CN3CCN(c4ccccn4)CC3)c1)[C@@]2(C)Br` (stereo not given in full), the ED50 was 7.9 mg/kg and the ED90 came to 12.2 mg/kg.

Turning to `C[C@@H]1CC[C@H]2[C@@H](C)C(=O)O[C@@H]3O[C@@]4(C)CC[C@@H]1[C@]32OO4` [ARTEMISININ], the ED50 came out at 16.4 mg/kg and the ED90 was 27.1 mg/kg.

Turning to `CCN1CCN(Cc2cc(NC3O[C@@H]4O[C@@]5(C)CC[C@H]6[C@H](C)CC[C@H]([C@@]46OO5)[C@]3(C)Br)ccc2O)CC1` (stereo not given in full), the ED50 was found to be 9.83 mg/kg and the ED90 turned out to be 16.6 mg/kg.

Turning to `C[C@@H]1CC[C@@H]2[C@]34OO[C@](C)(CC[C@@H]13)O[C@H]4OC(Nc1ccc(O)c(CN3CCN(Cc4ccccc4)CC3)c1)[C@@]2(C)Br` (stereo not given in full), the ED50 was 7.12 mg/kg and the ED90 was 12.1 mg/kg.

`C[C@@H]1CC[C@@H]2[C@]34OO[C@](C)(CC[C@@H]13)O[C@H]4OC(Nc1ccc(O)c(CN3CCN(C)CC3)c1)[C@@]2(C)Br` (stereo not given in full): the ED50 came out at 9.9 mg/kg and the ED90 stood at 17.4 mg/kg.

For `CCN(CC)Cc1cc(NC2O[C@@H]3O[C@@]4(C)CC[C@H]5[C@H](C)CC[C@H]([C@@]35OO4)[C@]2(C)Br)ccc1O` (stereo not given in full), the ED50 turned out to be 12.3 mg/kg and the ED90 amounted to 24.2 mg/kg.

Consider `C[C@@H]1CC[C@@H]2[C@]34OO[C@](C)(CC[C@@H]13)O[C@H]4OC(Nc1ccc(O)c(CN3CCN(c4ccccc4)CC3)c1)[C@@]2(C)Br` (stereo not given in full), for which the ED50 came to 5.41 mg/kg and the ED90 was 8.72 mg/kg.

On to `C[C@@H]1CC[C@@H]2[C@]34OO[C@](C)(CC[C@@H]13)O[C@H]4OC(Nc1ccc(O)c(CN3CCCCC3)c1)[C@@]2(C)Br` (stereo not given in full), for which the ED50 stood at 11.3 mg/kg and the ED90 stood at 23.1 mg/kg.

For the molecule `C[C@@H]1CC[C@@H]2[C@]34OO[C@](C)(CC[C@@H]13)O[C@H]4OC(Nc1ccc(O)c(CN3CCNCC3)c1)[C@@]2(C)Br` (stereo not given in full), the ED50 turned out to be 12.4 mg/kg and the ED90 amounted to 24.6 mg/kg.

The values are drawn from ChEMBL document CHEMBL3045589, “Aromatic amino analogues of artemisinin: synthesis and in vivo antimalarial activity” (2010).
